Experimental findings from ChEMBL document CHEMBL1201862, “PubChem BioAssay data set” (2004) are described below.

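Growth conditions: 96-well plates. Treatment: test compound, 48 hours, 5 concentrations. Analysis: linear interpolation between bracketing concentrations; unreached endpoints set to highest concentration. Abbreviation: GI50, concentration required for 50% inhibition of growth.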 Calls of active or inactive are those of the source. Rule as the data show it: active = GI50 up to about 1.1 µM and inactive = higher. Bounds are passed on as bounds.

Some test systems named below: A498; A549; CAKI-1; EKVX; HL-60; HOP-92; HT-29; M14; MOLT-4; NCI/ADR-RES; OVCAR-4; OVCAR-8; SF-268; SF-539; SK-MEL-2; SK-OV-3; SW-620; UO-31; MCF7.
Assay in all cases: NCI tumour cell line growth inhibition, 48 h

Consider `CC(=O)/C=C1\Nc2ccc([N+](=O)[O-])cc2N\C1=C/C(C)=O`, for which the GI50 with A498 was 25.4 µM (inactive); in the assay with A549 it was 38.3 µM (inactive); in the assay on CAKI-1 it was 58.2 µM (inactive); with EKVX, 42.4 µM (inactive); with HL-60, 56.6 µM (inactive); in the assay on HOP-92 it was 28.4 µM (inactive). The GI50 was 54 µM (inactive) with HT-29; > 100 µM (inactive) in the assay with M14; 21 µM (inactive) with MOLT-4; 30 µM (inactive) in the assay with NCI/ADR-RES; 44.7 µM (inactive) in the assay on OVCAR-4; 33.5 µM (inactive) with OVCAR-8. Also, the GI50 was 47.8 µM (inactive) in the assay with SF-268; 46.6 µM (inactive) with SF-539; 29.2 µM (inactive) in the assay on SK-MEL-2; 90.8 µM (inactive) in the assay with SK-OV-3; 64.6 µM (inactive) in the assay with SW-620; > 100 µM (inactive) in the assay with UO-31.

With `Brc1ccc2c(c1)C1=C(CO2)Cc2ccccc2O1`, the GI50 in the assay with A498 is 27.4 µM (inactive); in the assay on A549, 21.6 µM (inactive); with CAKI-1, 18.2 µM (inactive); with EKVX, 20.9 µM (inactive); in the assay on HOP-92 it was 15.6 µM (inactive); in the assay with HT-29 it was 23.3 µM (inactive). The GI50 is 19.3 µM (inactive) in the assay on M14; 20 µM (inactive) in the assay with MOLT-4; 23 µM (inactive) in the assay on NCI/ADR-RES; 16.8 µM (inactive) with OVCAR-4; 20.7 µM (inactive) in the assay with OVCAR-8; 19.1 µM (inactive) with SF-268. The GI50 in the assay with SF-539 is 18.6 µM (inactive); in the assay on SK-MEL-2, 17.7 µM (inactive); in the assay on SK-OV-3 it was 21.5 µM (inactive); in the assay on SW-620, 23.4 µM (inactive); in the assay with UO-31 it was 16.5 µM (inactive).

`C=C1C(C)C2C(Cc3ccccc3)NC(=O)C23OC(=O)/C=C\CC(=O)CCC(C)C/C=C/C3C1O` (centres undefined): the GI50 was 1.37 µM (inactive) with A498; 4.41 µM (inactive) in the assay on A549; 0.421 µM (active) in the assay on CAKI-1; 2.48 µM (inactive) in the assay with EKVX; 0.581 µM (active) with HOP-92; 1.54 µM (inactive) in the assay on HT-29. Besides, the GI50 is 0.91 µM (active) with MOLT-4; 2.31 µM (inactive) in the assay on OVCAR-4; 2.54 µM (inactive) in the assay on OVCAR-8; 1.66 µM (inactive) in the assay with SF-268; 1.58 µM (inactive) in the assay on SK-MEL-2; 6.05 µM (inactive) in the assay with SK-OV-3. For the same compound, the GI50 in the assay on SW-620 is 1.36 µM (inactive); with UO-31, 0.512 µM (active).

As to `C=CCN(Cc1ccncc1)C(=O)C(O)(c1ccccc1)c1ccccc1`, the GI50 in the assay with A549 was 79.3 µM (inactive); in the assay with CAKI-1, 31.5 µM (inactive); in the assay with EKVX it was 35.9 µM (inactive); in the assay on HL-60, 35.3 µM (inactive); in the assay with HT-29, 59.3 µM (inactive); in the assay with M14, 56 µM (inactive). Moreover, the GI50 with MCF7 is 59.3 µM (inactive); with MOLT-4, 27.8 µM (inactive); with NCI/ADR-RES it was 17.7 µM (inactive); with OVCAR-8 it was 86.9 µM (inactive); with SF-268 it was > 100 µM (inactive); with SF-539, 70.6 µM (inactive). In addition, the figures for the GI50 in the assay with SK-OV-3, in the assay on SW-620 and with UO-31 were > 100 µM (inactive), > 100 µM (inactive) and 17.5 µM (inactive), respectively.

`COC(=O)c1c(C)cccc1CC1Cc2c(C)cccc2C1=O` (centres undefined): the GI50 in the assay with A498 was 22.6 µM (inactive); in the assay on A549, 28.4 µM (inactive); in the assay with CAKI-1, 33.4 µM (inactive); with EKVX it was 33.7 µM (inactive); in the assay with HL-60 it was 16.9 µM (inactive); in the assay on HOP-92, 24.4 µM (inactive). Moreover, the GI50 with HT-29 is 30.5 µM (inactive); in the assay with M14, 31.5 µM (inactive); with MOLT-4, 24.4 µM (inactive); in the assay on NCI/ADR-RES it was 19.9 µM (inactive); with OVCAR-4, 32.8 µM (inactive); with OVCAR-8, 48.3 µM (inactive). Further, the GI50 in the assay with SF-268 was 31 µM (inactive); with SF-539, 40.8 µM (inactive); with SK-MEL-2, 18.7 µM (inactive); in the assay on SK-OV-3, 20.2 µM (inactive); with SW-620, 40.6 µM (inactive); in the assay with UO-31, 16.9 µM (inactive).

For `CCOC(CCCN1CCC2(CC1)C(=O)N(C)CN2c1ccccc1)(OCC)c1ccc(F)cc1`, the GI50 was 8.65 µM (inactive) in the assay on A549; 6.59 µM (inactive) in the assay with CAKI-1; 2.14 µM (inactive) in the assay with EKVX; 13 µM (inactive) in the assay on HL-60; 3.49 µM (inactive) in the assay on HT-29; 10.7 µM (inactive) in the assay with M14. The GI50 with MCF7 is 3.8 µM (inactive); in the assay on MOLT-4 it was 7.11 µM (inactive); in the assay on NCI/ADR-RES, 13.7 µM (inactive); in the assay on OVCAR-8, 15.4 µM (inactive); in the assay on SF-268 it was 12.9 µM (inactive); in the assay with SF-539 it was 3.77 µM (inactive). For the same compound, the GI50 with SK-OV-3 was 21.8 µM (inactive); in the assay on SW-620 it was 10.4 µM (inactive); in the assay on UO-31 it was 7.01 µM (inactive).

With `Cc1cc(CC(O)(C(F)(F)F)C(F)(F)F)cc(CC(O)(C(F)(F)F)C(F)(F)F)n1`, the GI50 with A498 was 2.76 µM (inactive); with A549, 3.3 µM (inactive); in the assay with CAKI-1 it was > 100 µM (inactive); in the assay with EKVX, 2.89 µM (inactive); with HL-60 it was 3.02 µM (inactive); in the assay on HOP-92 it was 2.55 µM (inactive). The GI50 with HT-29 is 2.58 µM (inactive); in the assay with M14 it was 3.71 µM (inactive); in the assay on MOLT-4, 3.24 µM (inactive); with NCI/ADR-RES, 1.87 µM (inactive); in the assay with OVCAR-4, 3.47 µM (inactive); in the assay on OVCAR-8, 3.48 µM (inactive). The GI50 in the assay on SF-268 was 2.7 µM (inactive); with SF-539, 3.43 µM (inactive); in the assay on SK-MEL-2, 2.44 µM (inactive); in the assay with SW-620 it was > 100 µM (inactive); in the assay with UO-31 it was 2.05 µM (inactive).

As for `CNC(=O)N1CN(c2ccccc2)C2(CCN(Cc3ccccc3)CC2)C1=O`, the GI50 is > 100 µM (inactive) in the assay on A549; > 100 µM (inactive) in the assay on CAKI-1; 74.6 µM (inactive) with EKVX; 43.1 µM (inactive) with HL-60; 15.6 µM (inactive) in the assay with HT-29; > 100 µM (inactive) with M14. Moreover, the GI50 with MCF7 was 8.93 µM (inactive); with MOLT-4, 14.2 µM (inactive); in the assay with NCI/ADR-RES it was 12.2 µM (inactive); in the assay with OVCAR-8, > 100 µM (inactive); with SF-268, > 100 µM (inactive); with SF-539 it was 34.7 µM (inactive). For the same compound, the GI50 in the assay with SK-OV-3 is 4.18 µM (inactive); in the assay on SW-620 it was 46.1 µM (inactive); with UO-31, 11.3 µM (inactive).

For the compound `CCCC[P+](CCCC)(CCCC)C(C(=O)OC)C(C(=O)OC)=C1SC(C(=O)OC)=C(C(=O)OC)S1` (centres undefined), the GI50 in the assay on A549, with EKVX, with HOP-92, with HT-29, in the assay with M14 and in the assay with MCF7 was > 100 µM (inactive) in each case. Moreover, the GI50 with MOLT-4, with NCI/ADR-RES, with OVCAR-4, in the assay on OVCAR-8, in the assay on SF-268 and in the assay on SK-MEL-2 was > 100 µM (inactive) throughout. In addition, the GI50 with SK-OV-3, with SW-620 and in the assay with UO-31 was > 100 µM (inactive) each time.
